Results taken from patent publication US20200278355A1, “CONJUGATED PROTEINS AND USES THEREOF” (THE SCRIPPS RESEARCH INSTITUTE, priority 2017, published 2020).
“Also recorded” adds a separate entry of the source.

Columns and labels:
CRY1 protein content = CRY1 protein content by immunoblotting in H460 cells; format: cell-based, human; settings: 9 h
Protocol: FIG. 13A-FIG. 13E illustrate characterization of NR0B1 ligands in Keap1-mutant NSCLC cells. […] Top: Heat map depicting changes in gene expression between H460 cells expressing shNRF2, shNR0B1 or a control (shGFP) and those treated with vehicle (DMSO), BPK-29 or BPK-9 (30 μM, 12 h). Expression for each condition was first normalized to appropriate controls (shGFP or DMSO) and then normalized by row. Bottom: Overlap between gene sets regulated in BPK-29-treated vs shNR0B1 H460 cells. Gene set enrichment analysis (GSEA) was applied to all genes that were differentially expressed between shNR0B1-H460 cells and shGFP-H460 cells or between H460 cells treated with BPK-29 or DMSO. Genes were ranked based on their FDR. […] Gene expression changes for CRY1, DEPDC1, and CPLX2 were determined by qPCR and data represents mean values+SD (n=4-10). […] Gene expression changes for Cry1, DEPDC1, and CPLX2 were determined by qPCR and data represents mean values+SD (n=4-6). […] Protein expression was analyzed by immunoblotting. […] Top: H460 cells were treated with cycloheximide (100 μg/mL) for the indicated time points and NR0B1 protein content assessed by immunoblotting. […] NR0B1 protein content was determined following cycloheximide treatment and data were fit into a one-phase exponential decay model. […]

C274 of NR0B1 = target: T1, C274 of NR0B1 (Homo sapiens, UniProt P51843); assay: Site of labeling by LC-MS/MS of FLAG-NR0B1 tryptic peptides; format: binding; settings: BPK-26 100 μM, 3 h in lysate, BPK-29 50 μM, 3 h in HEK293T cells
T1 construct: expressed in transfected cells; host or cells: HEK-293T, transient, pRK5-based vector
T1 sequence (P51843 whole entry): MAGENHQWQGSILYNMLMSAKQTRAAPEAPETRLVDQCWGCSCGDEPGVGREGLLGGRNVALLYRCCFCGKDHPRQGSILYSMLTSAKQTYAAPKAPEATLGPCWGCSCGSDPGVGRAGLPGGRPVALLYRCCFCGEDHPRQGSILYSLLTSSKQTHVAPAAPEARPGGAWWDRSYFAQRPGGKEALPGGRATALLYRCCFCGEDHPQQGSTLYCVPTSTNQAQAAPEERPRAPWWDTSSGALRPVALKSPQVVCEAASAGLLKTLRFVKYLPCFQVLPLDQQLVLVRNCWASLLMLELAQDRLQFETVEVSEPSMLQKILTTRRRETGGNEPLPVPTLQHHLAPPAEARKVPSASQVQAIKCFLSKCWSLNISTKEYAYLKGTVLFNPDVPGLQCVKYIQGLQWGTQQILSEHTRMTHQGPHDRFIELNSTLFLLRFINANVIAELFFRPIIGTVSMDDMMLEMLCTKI
Protocol: FIG. 11A-FIG. 11F illustrate a covalent ligand targeting Cys274 disrupts NR0B1 protein complexes. […] See also FIG. 5C. […] Top: Structures of screening hit BPK-28 and synthesized derivatives. […] The In vitro-binding assay was performed as described in FIG. 5B using compounds at a concentration of 50 μM. Bottom: Data represent mean values±SD normalized to DMSO control. n=4/group. […] Top: Compounds were tested as described in FIG. 5B. Bottom: Graph of concentration-dependent inhibition of NR0B1-SNW1 interactions by the indicated compounds. Percent binding was normalized to vehicle (DMSO). Data represent mean values±SD (n=2-5/group). FIG. 11D and FIG. 11E show NR0B1 ligands BPK-26 (D) and BPK-29 (E) covalently modify C274 in NR0B1. Lysate generate from HEK293T cell expressing FLAG-NR0B1 was treated with DMSO or BPK-26 (100 μM, 3 h, D). […] FLAG-immunoprecipitates were prepared from each lysate and subjected to proteolytic digestion, whereupon tryptic peptides harboring C274 were analyzed by LC-MS/MS. […] Immunoprecipitates were analyzed by in-gel fluorescence-scanning to assess BPK-29yne labeling or by immunoblot for FLAG-NR0B1. […] In a modified in vitro binding assay shown in FIG. 5B, HEK293T cells expressing HA-NR0B1-WT or an HA-NR0B1-C274V mutant were treated with DMSO or BPK-26 (20 μM, 3 h), after which lysates were and interaction with FLAG-SNW1 assessed. […]

covalent modification of C274 of NR0B1 (C274 of NR0B1)	SMILES	CRY1 protein content (CRY1 protein content)
	O=C(c1ccc(N2CCOCC2)cc1)N1CCC(CN(C(=O)CCl)c2cncnc2)CC1 [BPK-9, 2-chloro-N-((1-(4-morpholinobenzoyl)piperidin-4-yl)methyl)-N-(pyrimidin-5-yl)acetamide]	not observed
covalently modified C274 of NR0B1	O=C(CCl)N(Cc1cccc(Cl)c1F)c1ccc(Cl)nc1 [BPK-26, 2-chloro-N-(3-chloro-2-fluorobenzyl)-N-(6-chloropyridin-3-yl)acetamide]	
covalently modified C274 of NR0B1	O=C(c1ccc(N2CCOCC2)cc1)N1CCCC(N(Cc2ccccc2)C(=O)CCl)CC1 (stereo not shown) [BPK-29, N-benzyl-2-chloro-N-(1-(4-morpholinobenzoyl)azepan-4-yl)acetamide]	reduces CRY1 protein content; also recorded: substantial reduction in CRY1 protein content
